Columns and labels:
[1] = Cell-free vesicle/nanoparticle formation on chamber slides, microscopy; format: physicochemical
Text: Based upon these measurements, we hypothesized that the antibody-protamine/free SMCC-protamine/siRNA complexes form outside cells and independently of a cellular context. […]
In detail, the nanostructures resemble a spheroid shape of micrometre size, formed by the three components mAB-SMCC-protamine, unconjugated SMCC-protamine and the Alexa488-labeled siRNA (FIG. 37). The structures are verified by fluorescence microscopy and laser scan confocal microscopy. It became evident that the spheroid structures are completely filled with Alexa488 signals from the siRNA compound.

HBL-1 cells = test: Colony formation assay, HBL-1; format: cell-based
Description: Next, we planned functional assays for identifying the effectivity of the antibody-inhibitor-complexes. DLBCL tumor cells were seeded in methylcellulose to form anchorage-free colony growth as a substitute marker for tumorigenicity. Assays were treated with combinations of antibody-inhibitor complexes and compared with appropriate control groups.
This colony-assay is used for quantification of anchorage-independent clonal cell growth and is a standard in vitro surrogate for tumorigenicity in vivo.

HBL-1 DLBCL-cells = test: NSG-HBL1 xenograft model; format: in vivo; conditions: after treatment start, groups of 10 mice
Description: A. Tumor growth and treatment regimen of the NSG-HBL1 xenograft model. After transplantation, tumors were grown to 200 mm^3, before treatment was started twice a week intraperitoneally (i.p.). […] On every treatment day, twice a week, tumor volumes were assessed by caliper measurements. […] C. Survival curves of the treatment versus control groups.

siRNA = test: Bandshift (electro-mobility shift) assay, siRNA binding; conditions: preparation containing free SMCC-protamine
Description: We analysed the siRNA binding capacity of these different conjugations by our routine bandshift assays (FIG. 40A-F).
The principle of genetic fusion between cell-determining targeting moiety and the electrostatic siRNA binder protamine such as presented in Song et al. was evaluated by applying this strategy to in a variation to target e.g. leukemic blasts (FIG. 48). The well-known anti-CD33 receptor antibody gemtuzumab was expressed with (FIG. 51) and without a direct genetic fusion to protamine as a siRNA carrier.

[2] = Bandshift assay, SM-1/RF binding; conditions: free SMCC-protamine present; listed as Not SMCC-protamine depleted CD20-mAB-preparations
Description: Subsequently, we performed the same experiments for the binding between SM-1/RF and two carrier systems, rituximab (CD20)-protamine and the reliable cetuximab (EGFR)-protamine.

[3] = Bandshift assay, ibrutinib-Cy3.5 binding; conditions: free protamine-SMCC present; listed as Not protamine-SMCC depleted αCD20-mAB-preparations

| Molecule | nanoparticle/vesicle formation, cell-free ([1]; listed as uncharged ibrutinib) | colony formation (HBL-1 cells) | day by which all/last mice had to be sacrificed (HBL-1 DLBCL-cells) | siRNA bound per mol of antibody carrier (siRNA) | siRNA bound per mol of antibody carrier (siRNA; listed as Anti-CD20 mAB conjugated to SMCC-protamine) | siRNA bound per mol of antibody carrier (siRNA; listed as rituximab-protamine) | SM-1/RF complexed per mol of carrier mAB [2] | ibrutinib-Cy3.5 complexed per mol of carrier mAB [3] | Microscopic analysis [1] |
| --- | --- | --- | --- | --- | --- | --- | --- | --- | --- |
| C=CC(=O)N1CCC[C@@H](n2nc(-c3ccc(Oc4ccccc4)cc3)c3c(N)ncnc32)C1 [ibrutinib, 1-[(3R)-3-[4-amino-3-(4-phenoxyphenyl)pyrazolo[3,4-d]pyrimidin-1-yl]piperidin-1-yl]prop-2-en-1-one] | not with uncharged ibrutinib | much lesser degree | 20 days | – | – | – | – | – | – |
| rituximab: anti-CD20 antibody | – | only a mild effect on colony growth | ≤ 16 days | – | – | – | – | – | – |
| CD20-mAB rituximab-protamine/P conjugates: anti-CD20 antibody rituximab conjugated via sulfo-SMCC to protamine, containing free SMCC-protamine | – | – | – | 8 mol | around 16 mol | about 8 mol | > 32 mol | > 32 mol | No visible |
